Reference: patent US6169087A, “Modulators of protein tyrosine phosphatases (PTPases)” (Novo Nordisk A/S, priority 1998, dated 2001)

Target: T1, truncated form of PTP1B (corresponding to the first 321 amino acids) (Homo sapiens, UniProt P18031)
T1 construct: truncated form of PTP1B (corresponding to the first 321 amino acids); made in house; host or cells: E. coli
T1 sequence (P18031 1-321): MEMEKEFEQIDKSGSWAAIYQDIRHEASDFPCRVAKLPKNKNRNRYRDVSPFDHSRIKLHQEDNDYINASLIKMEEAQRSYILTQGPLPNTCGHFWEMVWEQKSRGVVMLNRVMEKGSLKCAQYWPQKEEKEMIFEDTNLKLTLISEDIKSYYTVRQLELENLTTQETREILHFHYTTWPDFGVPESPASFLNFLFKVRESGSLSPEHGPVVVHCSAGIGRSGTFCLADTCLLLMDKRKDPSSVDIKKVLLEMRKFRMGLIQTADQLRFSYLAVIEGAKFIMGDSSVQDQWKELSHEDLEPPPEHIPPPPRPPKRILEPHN
Experiment: Inhibition of classical PTP1B, p-nitrophenyl phosphate enzyme assay
Assay type: biochemical
Conditions: substrate p-nitrophenyl phosphate 0.16 to 10 mM; 100 mM sodium acetate pH 5.5; 25° C., 60 minutes; absorbance at 405 nm; read-out: PTP1B K1 values
Procedure: These compounds were evaluated for biological activity with a truncated form of PTP1B (corresponding to the first 321 amino acids), which was expressed in E. coli and purified to apparent homogeneity using published procedures well-known to those skilled in the art. The enzyme reactions were carried out using standard conditions essentially as described by Burke et al. (Biochemistry 35; 15989-15996 (1996)). The assay conditions were as follows. Appropriate concentrations of the compounds of the invention were added to the reaction mixtures containing different concentrations of the substrate, p-nitrophenyl phosphate (range: 0.16 to 10 mM--final assay concentration). The buffer used was 100 mM sodium acetate pH 5.5, 50 mM sodium chloride, 0.1% (w/v) bovine serum albumin and 5 mM dithiothreitol (total volume […]). The reaction was started by addition of the enzyme and carried out in microliter plates at 25° C. for 60 minutes. The reactions were stopped by addition of NaOH. The enzyme activity was determined by measurement of the absorbance at 405 nm with appropriate corrections for absorbance at 405 nm of the compounds and p-nitrophenyl phosphate. The data were analyzed using nonlinear regression fit to classical Michaelis Menten enzyme kinetic models. Inhibition is expressed as Ki values in μM.

Row | Structure (SMILES) | Ki [µM]
1 | CCSc1nn(-c2ccc(OC)cc2)c(=O)c2c(N)scc12 [Example 2, 7-Amino-4-ethylsulfanyl-2-(4-methoxy-phenyl)thieno[3,4-d]pyridazin-1(2H)-one] | 2
2 | Nc1scc2c1c(=O)oc1ccc3ccccc3c12 [Example 3, 3-Amino4H-naphtho[2,1-b]thieno[3,4-d]pyran-4-one] | 4
